Measured values taken from US20250145585A1, “HETEROCYCLIC INHIBITORS OF IGF-1R FOR TREATMENT OF DISEASE” (HORIZON THERAPEUTICS IRELAND DAC, priority 2023, published 2025).

biological target: T1, IGF-1R (Homo sapiens, UniProt P08069); assay: Example B-2: IGF-1R Assay (PathHunter cell lines, EC80 agonist challenge, chemiluminescent detection); assay type: cell-based; details: PathHunter cells, compound 60 minutes at 37° C., EC80 agonist 3 hours; read-out: IC50, Biological Activity against IGF-1R (Table B2)
T1 construct: expressed in transfected cells
T1 sequence (P08069 31-1367): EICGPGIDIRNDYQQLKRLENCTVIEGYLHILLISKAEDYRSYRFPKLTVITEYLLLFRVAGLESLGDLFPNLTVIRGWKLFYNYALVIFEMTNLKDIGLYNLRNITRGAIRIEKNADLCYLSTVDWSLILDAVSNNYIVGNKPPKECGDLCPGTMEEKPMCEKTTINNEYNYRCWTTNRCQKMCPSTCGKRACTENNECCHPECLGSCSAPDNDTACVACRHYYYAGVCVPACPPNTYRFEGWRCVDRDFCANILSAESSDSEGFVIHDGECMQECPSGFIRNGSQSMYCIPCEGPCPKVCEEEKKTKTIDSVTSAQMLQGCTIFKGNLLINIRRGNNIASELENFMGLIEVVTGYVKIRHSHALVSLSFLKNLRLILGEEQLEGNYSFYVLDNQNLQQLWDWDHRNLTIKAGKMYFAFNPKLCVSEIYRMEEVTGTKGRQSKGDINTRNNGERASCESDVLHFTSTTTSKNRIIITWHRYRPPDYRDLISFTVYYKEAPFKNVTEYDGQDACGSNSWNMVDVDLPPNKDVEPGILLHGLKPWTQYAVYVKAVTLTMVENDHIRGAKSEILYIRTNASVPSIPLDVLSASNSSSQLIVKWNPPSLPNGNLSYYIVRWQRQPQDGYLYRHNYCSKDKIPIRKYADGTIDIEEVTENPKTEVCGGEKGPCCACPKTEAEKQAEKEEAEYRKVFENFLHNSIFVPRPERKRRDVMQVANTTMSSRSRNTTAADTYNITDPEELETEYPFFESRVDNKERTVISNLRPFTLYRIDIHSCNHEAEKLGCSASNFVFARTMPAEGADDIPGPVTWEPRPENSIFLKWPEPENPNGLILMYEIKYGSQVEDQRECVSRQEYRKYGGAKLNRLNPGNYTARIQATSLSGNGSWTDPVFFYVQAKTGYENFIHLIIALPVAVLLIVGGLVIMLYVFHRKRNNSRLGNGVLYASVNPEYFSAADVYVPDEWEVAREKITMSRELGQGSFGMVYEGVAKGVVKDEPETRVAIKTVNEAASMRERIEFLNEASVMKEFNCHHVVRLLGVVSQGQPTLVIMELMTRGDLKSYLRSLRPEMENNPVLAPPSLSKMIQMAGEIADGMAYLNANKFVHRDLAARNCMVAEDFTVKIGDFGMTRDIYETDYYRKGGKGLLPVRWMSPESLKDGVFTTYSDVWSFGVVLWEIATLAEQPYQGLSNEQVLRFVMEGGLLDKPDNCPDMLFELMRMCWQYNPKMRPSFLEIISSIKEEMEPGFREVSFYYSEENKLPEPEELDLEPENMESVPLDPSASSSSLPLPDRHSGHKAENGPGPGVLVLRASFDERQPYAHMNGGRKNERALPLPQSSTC
Description: PathHunter cell lines were expanded from freezer stocks according to standard procedures. Cells were seeded in a total volume of 20 μL into white walled, 384-well microplates and incubated for the appropriate time prior to testing.
Cells are pre-incubated with compound followed by EC80 agonist challenge as follows: • R. 1. Intermediate dilution of sample stocks was performed to generate 5× sample in assay buffer. • 2. 5 μL of 5× sample was added to cells and incubated at 37° C. for 60 minutes. Vehicle concentration was 1%. • 3. 5 IL of 6× EC80 agonist in assay buffer was added to the cells and incubated at room temperature for 3 hours.
Assay signal was generated through a single addition of 12.5 or 15 μL (50% v/v) of PathHunter Detection reagent cocktail for agonist and antagonist assays respectively, followed by a one hour incubation at room temperature. Microplates were read following signal generation with a PerkinElmer Envision™ instrument for chemilumine-scent signal detection.
Compound activity was analyzed using CBIS data analysis suite (ChemInnovation, CA). Percentage inhibition was calculated using the following formula: % Inhibition=100%×(1−(mean RLU of test sample−mean RLU of vehicle control)/(mean RLU of EC80 control−mean RLU of vehicle control)). The activity for representative examples of the invention is shown in the following table, wherein A: IC50≤500 nM; B: 500 nM<IC50≤2 μM; C: 2 μM<IC50≤10 μM; D: IC50>10 μM.

Compound | IC50 [nM]
C[C@H](CC#N)Nc1cc(CN2C(=O)N(c3ccc(S(=O)(=O)C(F)(F)F)cc3)C(=O)C2(C)C)ccn1 [Compound 331, (R)-3-((4-((5,5-dimethyl-2,4-dioxo-3-(4-((trifluoromethyl)sulfonyl)phenyl)imidazolidin-1-yl)methyl)pyridin-2-yl)amino)butanenitrile] | 500 to 2000
CC1(C)C(=O)N(c2ccc(C3(C(F)(F)F)CC3)cc2)C(=O)N1Cc1ccnc(NC2CCN(S(C)(=O)=O)C2)c1 (stereo not drawn) [Compound 146, 5,5-dimethyl-1-((2-((1-(methylsulfonyl)pyrrolidin-3-yl)amino)pyridin-4-yl)methyl)-3-(4-(1-(trifluoromethyl)cyclopropyl)phenyl) imidazolidine-2,4-dione] | 500 to 2000
CO[C@H](C)CNc1cc(CN2C(=O)N(c3ccc(S(=O)(=O)C(F)(F)F)cc3)C(=O)C2(C)C)ccn1 [Compound 338, (R)-1-((2-((2-methoxypropyl)amino)pyridin-4-yl)methyl)-5,5-dimethyl-3-(4-((trifluoromethyl)sulfonyl)phenyl) imidazolidine-2,4-dione] | ≤ 500
CC1(C)C(=O)N(c2ccc(C(F)(F)F)c(C#N)c2)C(=O)N1Cc1ccnc2c1CC(=O)N2 [Compound 66, 5-(4,4-dimethyl-2,5-dioxo-3-((2-oxo-2,3-dihydro-1H-pyrrolo[2,3-b]pyridin-4-yl)methyl)imidazolidin-1-yl)-2-(trifluoromethyl)benzonitrile] | > 10000
CC1(C)C(=O)N(c2ccc(S(=O)(=O)C(F)(F)F)cc2)C(=O)N1Cc1ccnc(N[C@@H]2[C@@H]3COC[C@@H]32)c1 [Compound 335, 1-((2-(((1R,5S,6s)-3-oxabicyclo[3.1.0]hexan-6-yl)amino)pyridin-4-yl)methyl)-5,5-dimethyl-3-(4-((trifluoromethyl)sulfonyl)phenyl) imidazolidine-2,4-dione] | 500 to 2000
CC(C)(C)C(=O)Oc1cc2c(CN3C(=O)N(c4ccc(C5(C(F)(F)F)CC5)cc4)C(=O)C3(C)C)ccnc2[nH]1 [Compound 77, 4-((5,5-dimethyl-2,4-dioxo-3-(4-(1-(trifluoromethyl)cyclopropyl)phenyl)imidazolidin-1-yl)methyl)-1H-pyrrolo [2,3-b]pyridin-2-yl pivalate] | ≤ 500
CC1(C)C(=O)N(c2ccc3c(c2)N(S(C)(=O)=O)CC32CCC2)C(=O)N1Cc1ccnc(NCC23CCC(CC2)OC3)c1 [Compound 233, 1-((2-(((2-oxabicyclo[2.2.2]octan-4-yl)methyl)amino)pyridin-4-yl)methyl)-5,5-dimethyl-3-(1′-(methylsulfonyl)spiro[cyclobutane-1,3′-indolin]-6′-yl)imidazolidine-2,4-dione] | ≤ 500
CC1(C)C(=O)N(c2ccc3c(c2)N(C(=O)C2CC2)CC32CC2)C(=O)N1Cc1ccnc2c1CC(=O)N2 [Compound 46, 3-(1′-(cyclopropanecarbonyl)spiro[cyclopropane-1,3′-indolin]-6′-yl)-5,5-dimethyl-1-((2-oxo-2,3-dihydro-1H-pyrrolo[2,3-b]pyridin-4-yl)methyl)imidazolidine-2,4-dione] | ≤ 500
C[C@@H](CC#N)Nc1cc(CN2C(=O)N(c3ccc(C(C)(C)C#N)cc3)C(=O)C2(C)C)ccn1 [Compound 151, (S)-3-((4-((3-(4-(2-cyanopropan-2-yl)phenyl)-5,5-dimethyl-2,4-dioxoimidazolidin-1-yl)methyl)pyridin-2-yl)amino)butanenitrile] | 500 to 2000
CC(CS(C)(=O)=O)Nc1cc(CN2C(=O)N(c3ccc(C4(C(F)(F)F)CC4)cc3)C(=O)C2(C)C)ccn1 (stereo not drawn) [Compound 140, 5,5-dimethyl-1-((2-((1-(methylsulfonyl)propan-2-yl)amino)pyridin-4-yl)methyl)-3-(4-(1-(trifluoromethyl)cyclopropyl)phenyl) imidazolidine-2,4-dione] | 500 to 2000
CC(C)c1ccc(N2C(=O)N(Cc3ccnc(N[C@H]4[C@@H]5COC[C@@H]54)c3)C(C)(C)C2=O)cc1OCCN(C)C [Compound 280, 1-((2-(((1R,5S,6r)-3-oxabicyclo[3.1,0]hexan-6-yl)amino)pyridin-4-yl)methyl)-3-(3-(2-(dimethylamino)ethoxy)-4-isopropylphenyl)-5,5-dimethylimidazolidine-2,4-dione] | ≤ 500
CC1(C)CN(S(C)(=O)=O)c2cc(N3C(=O)N(Cc4ccnc(N[C@H]5[C@@H]6COC[C@@H]65)c4)C(C)(C)C3=O)ccc21 [Compound 207, 1-((2-(((1R,5S,6r)-3-oxabicyclo[3.1.0]hexan-6-yl)amino)pyridin-4-yl)methyl)-3-(3,3-dimethyl-1-(methylsulfonyl)indolin-6-yl)-5,5-dimethylimidazolidine-2,4-dione] | ≤ 500
C[C@H]1COc2c(CN3C(=O)N(c4ccc(C5(C(F)(F)F)CC5)cc4)C(=O)C3(C)C)ccnc2N1 [Compound 26, (S)-5,5-dimethyl-1-((3-methyl-3,4-dihydro-2H-pyrido[3,2-b][1,4]oxazin-8-yl)methyl)-3-(4-(1-(trifluoromethyl)cyclopropyl)phenyl) imidazolidine-2,4-dione] | ≤ 500
CC1(C)CN(S(=O)(=O)C2CC2)c2cc(N3C(=O)N(Cc4ccnc(NC5CCOCC5)c4)C(C)(C)C3=O)ccc21 [Compound 248, 3-(1-(cyclopropylsulfonyl)-3,3-dimethylindolin-6-yl)-5,5-dimethyl-1-((2-((tetrahydro-2H-pyran-4-yl)amino)pyridin-4-yl)methyl)imidazolidine-2,4-dione] | ≤ 500
CC1(C)C(=O)N(c2ccc(C3(C(F)(F)F)CC3)cc2)C(=O)N1Cc1ccnc2c1CS(=O)(=O)N2 [Compound 44, 1-((2,2-dioxido-1,3-dihydroisothiazolo[3,4-b]pyridin-4-yl)methyl)-5,5-dimethyl-3-(4-(1-(trifluoromethyl)cyclopropyl)phenyl) imidazolidine-2,4-dione] | > 10000
CC1(C)C(=O)N(c2ccc(C3(C(F)(F)F)CC3)cc2)C(=O)N1Cc1ccnc(N[C@H]2C[C@H]2F)c1 [Compound 142, 1-((2-(((1S,2R)-2-fluorocyclopropyl)amino)pyridin-4-yl)methyl)-5,5-dimethyl-3-(4-(1-(trifluoromethyl)cyclopropyl)phenyl)imidazolidine-2,4-dione] | ≤ 500
[2H]C([2H])([2H])Nc1cc(CN2C(=O)N(c3ccc4c(c3)N(S(C)(=O)=O)CC4(C)C)C(=O)C2(C)C)ccn1 [Compound 247, 3-(3,3-dimethyl-1-(methylsulfonyl)indolin-6-yl)-5,5-dimethyl-1-((2-((methyl-d3)amino)pyridin-4-yl)methyl)imidazolidine-2,4-dione] | ≤ 500
CC1(C)C(=O)N(c2cc3c(cc2Br)C2(CCC2)CO3)C(=O)N1Cc1ccnc2c1CC(=O)N2 [Compound 52, 3-(5-bromo-2H-spiro[benzofuran-3,1′-cyclobutan]-6-yl)-5,5-dimethyl-1-((2-oxo-2,3-dihydro-1H-pyrrolo[2,3-b]pyridin-4-yl)methyl)imidazolidine-2,4-dione] | ≤ 500
CC1(C)CN(S(C)(=O)=O)c2cc(N3C(=O)N(Cc4ccnc(NC5CCOCC5)c4)C(C)(C)C3=O)ccc21 [Compound 209, 3-(3,3-dimethyl-1-(methylsulfonyl)indolin-6-yl)-5,5-dimethyl-1-((2-((tetrahydro-2H-pyran-4-yl)amino)pyridin-4-yl)methyl)imidazolidine-2,4-dione] | ≤ 500
CN1CCCC(Nc2cc(CN3C(=O)N(c4ccc(S(=O)(=O)C(F)(F)F)cc4)C(=O)C3(C)C)ccn2)C1=O (stereo not drawn) [Compound 328, 5,5-dimethyl-1-((2-((1-methyl-2-oxopiperidin-3-yl)amino)pyridin-4-yl)methyl)-3-(4-((trifluoromethyl)sulfonyl)phenyl) imidazolidine-2,4-dione] | > 10000
CC1(C)C(=O)N(c2ccc3c(c2)N(S(C)(=O)=O)CC32CCC2)C(=O)N1Cc1ccnc(N[C@H]2[C@@H]3COC[C@@H]32)c1 [Compound 216, 1-((2-(((1R,5S,6r)-3-oxabicyclo[3.1.0]hexan-6-yl)amino)pyridin-4-yl)methyl)-5,5-dimethyl-3-(1′-(methylsulfonyl)spiro[cyclobutane-1,3′-indolin]-6′-yl)imidazolidine-2,4-dione] | ≤ 500
CC1(C)C(=O)N(c2ccc(S(=O)(=O)C(F)(F)F)cc2)C(=O)N1Cc1ccnc(N[C@H]2C[C@H]2F)c1 [Compound 357, 1-((2-(((1S,2R)-2-fluorocyclopropyl)amino)pyridin-4-yl)methyl)-5,5-dimethyl-3-(4-((trifluoromethyl)sulfonyl)phenyl)imidazolidine-2,4-dione] | ≤ 500
CC1(C)C(=O)N(c2ccc(OC(F)(F)F)c(Cl)c2)C(=O)N1Cc1ccnc2c1CC(=O)N2 [Compound 287, 3-(3-chloro-4-(trifluoromethoxy)phenyl)-5,5-dimethyl-1-((2-oxo-2,3-dihydro-1H-pyrrolo[2,3-b]pyridin-4-yl)methyl)imidazolidine-2,4-dione] | 2000 to 10000
CC1(Nc2cc(CN3C(=O)N(c4ccc(S(=O)(=O)C(F)(F)F)cc4)C(=O)C3(C)C)ccn2)CC1 [Compound 355, 5,5-dimethyl-1-((2-((1-methylcyclopropyl)amino)pyridin-4-yl)methyl)-3-(4-((trifluoromethyl)sulfonyl)phenyl)imidazolidine-2,4-dione] | ≤ 500
